The test system of the test is HIV-1 wild-type (R8) virus. Put plainly: Viral KINetics in Green cells (VIKING) assay, HIV-1 replication in MT4-GFP reporter cells. It is filed as cell-based. The settings on record: Human immunodeficiency virus 1, 10% normal human serum, MT4-GFP cells, HIV-1 wild-type (R8); read-out: Viking (10% NHS), IC50. The method, then:
Antiviral potency of the compounds was determined based on their ability to block HIV-1 replication in a GFP reporter cell line; this assay is referred to as Viral KINetics in Green cells or VIKING assay. HIV-1 replication was monitored using MT4-gag-GFP clone D3 (hereafter designate MT4-GFP) cells, which are MT4 cells modified to harbor a GFP reporter gene, the expression of which is dependent on the HIV-1 proteins tat and rev. (MT4 is a human T-cell line that is particularly sensitive to HIV-1 replication.) HIV-1 infection of MT4-GFP cells results in GFP expression approximately 24 h post-infection. MT4-GFP cells were maintained at 37° C./5% CO2/90% relative humidity in RPMI 1640 supplemented with 10% fetal bovine serum, 100 U/mL penicillin/streptomycin, and […] G418 to maintain the reporter gene. For infections, MT4-GFP cells were placed in the same medium lacking G418 and infected overnight with HIV-1 wild-type (R8) virus at an approximate multiplicity of infection of 0.01 in the same incubation conditions. Cells were then washed and resuspended in RPMI 1640 containing 10% normal human serum at 2×10^5 cells/mL. Compound plates were prepared by dispensing compounds dissolved in DMSO into wells of 384-well poly D lysine-coated plates (0.2 μl/well) using an ECHO acoustic dispenser. Each compound was tested in a 10-point serial 3-fold dilution (typical final concentrations: 4 μM-0.2 nM). Controls included no inhibitor (DMSO only) and a combination of three antiviral agents as a positive control (efavirenz, indinavir, and an integrase strand transfer inhibitor at final concentrations of 4 μM each). Infected cells were added (50 μL/well) to compound plates and were maintained at 37° C./5% CO2/90% relative humidity. Infected cells were quantified at two time points, approximately 48 h and 72 h post-infection, by counting the number of green cells in each well using an Acumen eX3 scanner. The increase in the number of green cells over ˜24 h period gives the reproductive ratio, R, which is calculated by dividing the number of green cells at 72 h over those at 48 h post-infection. The percent inhibition caused by a test compound is calculated using the following formula: […]
The dose-response curves of each test compound were plotted as % inhibition versus the compound concentration. IC50 values were determined by non-linear 4-parameter fitting of the dose-response curves.

Each structure is given as a SMILES string.

Broadly, the IC50 is the point on the concentration scale where inhibition reaches its midpoint.

In the case of `C#C[C@]1(COC(=O)OCc2ccc[nH]c2=O)O[C@@H](n2ccc3c(N)nc(Cl)nc32)C[C@@H]1OC(=O)OCc1ccc[nH]c1=O` [Example 205], the half-inhibitory concentration (IC50) turned out to be 4 nM.
In the case of `C#C[C@]1(CO)O[C@@H](n2ccc3c(N)nc(Cl)nc32)C[C@@H]1OC(=O)[C@H](C)c1ccccc1` [Example 99] it was 29 nM; in that of `C#C[C@]1(CO)O[C@@H](n2ccc3c(N)nc(Cl)nc32)C[C@@H]1OC(=O)OCc1ccc[nH]c1=O` [Example 201], 2.6 nM.
In the case of `C#C[C@]1(COC(=O)OCc2cccn(C)c2=O)O[C@@H](n2ccc3c(N)nc(Cl)nc32)C[C@@H]1OC(=O)OCc1cccn(C)c1=O` [Example 206] it was 3.4 nM; in that of `C#C[C@]1(CO)O[C@@H](n2ccc3c(N)nc(Cl)nc32)C[C@@H]1OC(=O)OCc1cc[nH]c(=O)c1` [Example 159], 14 nM.
For `C#C[C@]1(CO)O[C@@H](n2ccc3c(NC(=O)OCCc4ccccc4)nc(Cl)nc32)C[C@@H]1O` [Example 149], the 50% inhibitory concentration (IC50) was 429 nM.
In the case of `C#C[C@]1(CO)O[C@@H](n2ccc3c(N)nc(Cl)nc32)C[C@@H]1OC(=O)CCCCCCCCCCCCCCC` [Example 83] it was 25 nM.
Consider `C#C[C@]1(CO)O[C@@H](n2ccc3c(N)nc(Cl)nc32)C[C@@H]1OC(=O)CC12CC(C1)C2` [Example 96], for which the half-inhibitory concentration (IC50) amounted to 7.1 nM.
Regarding `C#C[C@]1(CO)O[C@@H](n2ccc3c(NC(=O)OCCCCCCCC)nc(Cl)nc32)C[C@@H]1O` [Example 223], the IC50 came out at 411 nM.
In the case of `C#C[C@]1(CO)O[C@@H](n2ccc3c(NC(=O)OCC4CCCCC4)nc(Cl)nc32)C[C@@H]1O` [Example 150] it was 740 nM; in that of `C#C[C@]1(COC(=O)OCc2ccccc2)O[C@@H](n2ccc3c(N)nc(Cl)nc32)C[C@@H]1OC(=O)CCCCCCC` [Example 211], 4 nM; in that of `C#C[C@]1(COC(=O)O[C@@H](C)c2ccccc2)O[C@@H](n2ccc3c(N)nc(Cl)nc32)C[C@@H]1O` [Example 127], 3.8 nM.
In the case of `C#C[C@]1(COC(=O)OCc2ccccc2)O[C@@H](n2ccc3c(N)nc(Cl)nc32)C[C@@H]1OC(=O)OCCC12CC3CC(CC(C3)C1)C2` [Example 215] it was 44 nM.
As for `C#C[C@]1(COC(=O)OCCCCC[C@@H]2SC[C@@H]3NC(=O)N[C@@H]32)O[C@@H](n2ccc3c(N)nc(Cl)nc32)C[C@@H]1OC(=O)OCCC12CC3CC(CC(C3)C1)C2` [Example 176], the IC50 came to 127 nM.
Take `C#C[C@]1(CO)O[C@@H](n2ccc3c(N(C(=O)CCC45CC6CC(CC(C6)C4)C5)C(=O)CCC45CC6CC(CC(C6)C4)C5)nc(Cl)nc32)C[C@@H]1O` [Example 217]: the IC50 is above 4030 nM.
In the case of `C#C[C@]1(COC(=O)OCCC23CC(C2)C3)O[C@@H](n2ccc3c(N)nc(Cl)nc32)C[C@@H]1OC(=O)OCCC12CC(C1)C2` [Example 169], the IC50 worked out at 13 nM.
With `C#C[C@]1(COC(=O)OCc2cccn(C)c2=O)O[C@@H](n2ccc3c(N)nc(Cl)nc32)C[C@@H]1OC(=O)OCc1ccccc1` [Example 93], the 50% inhibitory concentration (IC50) came to 7.8 nM.
As for `C#C[C@]1(COC(=O)OCCCCC[C@@H]2SC[C@@H]3NC(=O)N[C@@H]32)O[C@@H](n2ccc3c(NC(=O)CCc4ccccc4)nc(Cl)nc32)C[C@@H]1O` [Example 204], the 50% inhibitory concentration (IC50) is 123 nM.
Take `C#C[C@]1(COC(=O)[C@@H](C)c2ccccc2)O[C@@H](n2ccc3c(N)nc(Cl)nc32)C[C@@H]1OC(=O)[C@@H](C)c1ccccc1` [Example 103]: the IC50 is 405 nM.
In the case of `C#C[C@]1(CO)O[C@@H](n2ccc3c(NC(=O)OCCC45CC6CC(CC(C6)C4)C5)nc(Cl)nc32)C[C@@H]1O` [Example 148] it was 339 nM; in that of `C#C[C@]1(COCOC(=O)Oc2ccccc2)O[C@@H](n2ccc3c(N)nc(Cl)nc32)C[C@@H]1O` [Example 135], 3.8 nM.
Consider `C#C[C@]1(COC(=O)CCCCCCCCCCCCCCCCCCC)O[C@@H](n2ccc3c(N)nc(Cl)nc32)C[C@@H]1O` [Example 91], for which the IC50 was found to be 135 nM.
For `C#C[C@]1(CO)O[C@@H](n2ccc3c(N(C(=O)OCCCCCCCCCCCC)C(=O)OCCCCCCCCCCCC)nc(Cl)nc32)C[C@@H]1O` [Example 218], the IC50 is above 4030 nM.
Turning to `C#C[C@]1(CO)O[C@@H](n2ccc3c(NC(=O)OCCCCCCCCCCCCCC)nc(Cl)nc32)C[C@@H]1O` [Example 63, Tetradecyl (2-chloro-7-((2R,4S,5R)-5-ethynyl-4-hydroxy-5-(hydroxymethyl)tetrahydrofuran-2-yl)-7H-pyrrolo[2,3-d]pyrimidin-4-yl)carbamate], the IC50 is 1490 nM.
In the case of `C#C[C@]1(COC(=O)OCc2cccnc2)O[C@@H](n2ccc3c(N)nc(Cl)nc32)C[C@@H]1O` [Example 165] it was 4.9 nM; in that of `C#C[C@]1(COC(=O)OCc2ccn(C)c(=O)c2)O[C@@H](n2ccc3c(N)nc(Cl)nc32)C[C@@H]1OC(=O)OCc1ccccc1` [Example 162], 8.9 nM; in that of `C#C[C@]1(CO)O[C@@H](n2ccc3c(NC(=O)OCCCCC[C@@H]4SC[C@@H]5NC(=O)N[C@@H]54)nc(Cl)nc32)C[C@@H]1O` [Example 151], 17 nM.
In the case of `C#C[C@]1(CO)O[C@@H](n2ccc3c(N)nc(Cl)nc32)C[C@@H]1OC(=O)OCc1cccnc1` [Example 166], the IC50 turned out to be 6.7 nM.
In the case of `C#C[C@]1(COC(=O)CCCC)O[C@@H](n2ccc3c(N)nc(Cl)nc32)C[C@@H]1OC(C)=O` [Example 186] it was 25 nM; in that of `C#C[C@]1(COC(=O)OCc2cccnc2)O[C@@H](n2ccc3c(N)nc(Cl)nc32)C[C@@H]1OC(=O)OCC` [Example 172], 25 nM; in that of `C#C[C@]1(CO)O[C@@H](n2ccc3c(N)nc(Cl)nc32)C[C@@H]1OC(=O)OCc1ccn(C)c(=O)c1` [Example 158], 11 nM.
In the case of `C#C[C@]1(COC(=O)OCc2ccccc2)O[C@@H](n2ccc3c(N)nc(Cl)nc32)C[C@@H]1OC(=O)CCCC[C@@H]1SC[C@@H]2NC(=O)N[C@@H]21` [Example 195] it was 40 nM; in that of `C#C[C@]1(COC(=O)OCc2ccccc2)O[C@@H](n2ccc3c(NC(=O)CCc4ccccc4)nc(Cl)nc32)C[C@@H]1OC(=O)OCc1ccccc1` [Example 203], 47 nM; in that of `C#C[C@]1(COC(=O)OCCC23CC(C2)C3)O[C@@H](n2ccc3c(N)nc(Cl)nc32)C[C@@H]1O` [Example 170], 4.3 nM.
For the compound `C#C[C@]1(COC(=O)C23CC(C2)C3)O[C@@H](n2ccc3c(N)nc(Cl)nc32)C[C@@H]1OC(=O)OCCC12CC3CC(CC(C3)C1)C2` [Example 109], the 50% inhibitory concentration (IC50) is 21 nM.
On to `C#C[C@]1(COC(=O)OCCCCCCCC)O[C@@H](n2ccc3c(N)nc(Cl)nc32)C[C@@H]1OC(C)=O` [Example 112], for which the IC50 was determined as 28 nM.
Consider `C#C[C@]1(COC(=O)OCC23CC(C2)C3)O[C@@H](n2ccc3c(N)nc(Cl)nc32)C[C@@H]1O` [Example 168], for which the IC50 came to 3.9 nM.
In the case of `C#C[C@]1(CO)O[C@@H](n2ccc3c(N(C(=O)OCCCCCCCCCC)C(=O)OCCCCCCCCCC)nc(Cl)nc32)C[C@@H]1O` [Example 220] it was 615 nM; in that of `C#C[C@]1(COC(=O)OCc2cc[nH]c(=O)c2)O[C@@H](n2ccc3c(N)nc(Cl)nc32)C[C@@H]1O` [Example 130], 2.9 nM.
With `C#C[C@]1(COC(=O)C23CC(C2)C3)O[C@@H](n2ccc3c(N)nc(Cl)nc32)C[C@@H]1OC(=O)C12CC(C1)C2` [Example 104], the IC50 amounted to 4.1 nM.
For `C#C[C@]1(COC(=O)OCc2ccc[nH]c2=O)O[C@@H](n2ccc3c(N)nc(Cl)nc32)C[C@@H]1O` [Example 209], the concentration for half-maximal inhibition (IC50) came to 3.9 nM.
As to `C#C[C@]1(CO)O[C@@H](n2ccc3c(N)nc(Cl)nc32)C[C@@H]1OC(=O)OCc1cccn(C)c1=O` [Example 67, (2R,3S,5R)-5-(4-amino-2-chloro-7H-pyrrolo[2,3-d]pyrimidin-7-yl)-2-ethynyl-2-(hydroxymethyl)tetrahydrofuran-3-yl ((1-methyl-2-oxo-1,2-dihydropyridin-3-yl)methyl) carbonate], the half-inhibitory concentration (IC50) came out at 6.4 nM.
Regarding `C#C[C@]1(COC(=O)OCCCCC[C@@H]2SC[C@@H]3NC(=O)N[C@@H]32)O[C@@H](n2ccc3c(N)nc(Cl)nc32)C[C@@H]1O` [Example 132], the IC50 amounted to 3 nM.
In the case of `C#C[C@]1(CO)O[C@@H](n2ccc3c(N)nc(Cl)nc32)C[C@@H]1OC(=O)C12CC(C1)C2` [Example 105] it was 3.5 nM.

The values above are taken from patent US20240287124A1, “PRODRUGS OF 4'-SUBSTITUTED NUCLEOSIDE REVERSE TRANSCRIPTASE INHIBITORS” (Merck Sharp & Dohme LLC, priority 2023, published 2024).
